In ChEMBL document CHEMBL1201862, “PubChem BioAssay data set” (2004):
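Interpolation was linear, between the two tested concentrations surrounding the appropriate level; five concentrations were tested over 48 hours in 96-well plates. Here, GI50 denotes the concentration required for 50% inhibition of growth.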 Calls of active or inactive are those of the source. No stated cut-off is given here; in the data, active = GI50 up to about 1.1 µM and inactive = higher.

How the values were obtained:
Assay in all cases: NCI-60 cell line screen, 48 h
OVCAR-4 = test system: OVCAR-4
HCC 2998 = test system: HCC 2998
COLO 205 = test system: COLO 205
CCRF-CEM = test system: CCRF-CEM
HT-29 = test system: HT-29
OVCAR-5 = test system: OVCAR-5
HOP-62 = test system: HOP-62
M14 = test system: M14
SF-268 = test system: SF-268
OVCAR-8 = test system: OVCAR-8
RXF 393 = test system: RXF 393
Malme-3M = test system: Malme-3M
NCI-H460 = test system: NCI-H460
K562 = test system: K562
CAKI-1 = test system: CAKI-1
SR = test system: SR
NCI-H522 = test system: NCI-H522

Measured: GI50

O=C(CC1SC(Nc2ccccc2Cl)=NC1=O)Nc1ccc(Cl)cc1Cl (centres undefined)
inactive: OVCAR-4 > 100 µM | HCC 2998 > 100 µM | COLO 205 > 100 µM | CCRF-CEM > 100 µM | HT-29 > 100 µM | OVCAR-5 > 100 µM | HOP-62 > 100 µM | M14 > 100 µM | SF-268 > 100 µM | OVCAR-8 > 100 µM | RXF 393 > 100 µM | Malme-3M > 100 µM | NCI-H460 > 100 µM

COc1ccc(C2N3CCCCC3[C@@H]3c4[nH]c5ccccc5c4CCN23)c(OC)c1 (some centres undefined)
inactive: OVCAR-4 25.5 µM | COLO 205 18.2 µM | CCRF-CEM 26.9 µM | HT-29 15.8 µM | OVCAR-5 22.2 µM | HOP-62 84.7 µM | M14 16.8 µM | K562 26.7 µM | SF-268 21.1 µM | OVCAR-8 33.3 µM | RXF 393 14.1 µM | NCI-H460 22 µM | CAKI-1 52 µM

COC(=O)C12CC3CC(C1)CC(C(=O)OC)(C3)C2
inactive: SR > 100 µM | OVCAR-4 > 100 µM | HCC 2998 > 100 µM | CCRF-CEM > 100 µM | HT-29 > 100 µM | OVCAR-5 > 100 µM | HOP-62 > 100 µM | M14 > 100 µM | SF-268 > 100 µM | NCI-H522 > 100 µM | OVCAR-8 > 100 µM | NCI-H460 > 100 µM | CAKI-1 > 100 µM

Cc1ccccc1C(=O)Oc1ccc(Oc2ccccc2)cc1
inactive: OVCAR-4 > 100 µM | HCC 2998 86.1 µM | COLO 205 > 100 µM | CCRF-CEM 42.7 µM | HT-29 > 100 µM | OVCAR-5 > 100 µM | HOP-62 > 100 µM | M14 > 100 µM | K562 > 100 µM | SF-268 > 100 µM | OVCAR-8 > 100 µM | RXF 393 > 100 µM | Malme-3M > 100 µM | NCI-H460 39.2 µM | CAKI-1 72.9 µM

Nc1cc2c3c(cccc3c1)C(=O)N(CCN1CCN(CCN3C(=O)c4cccc5cc(N)cc(c45)C3=O)CC1)C2=O
inactive: OVCAR-4 > 100 µM | HCC 2998 > 100 µM | COLO 205 > 100 µM | CCRF-CEM > 100 µM | HT-29 32 µM | OVCAR-5 > 100 µM | HOP-62 > 100 µM | M14 98.9 µM | K562 > 100 µM | SF-268 91.2 µM | NCI-H522 > 100 µM | OVCAR-8 74.3 µM | RXF 393 > 100 µM | Malme-3M > 100 µM | NCI-H460 33.3 µM | CAKI-1 > 100 µM

CCCC1=C(CC)C(C(=O)Nc2c(C)cccc2C)=NC(S)N1 (centres undefined)
inactive: SR > 100 µM | OVCAR-4 > 100 µM | COLO 205 > 100 µM | CCRF-CEM > 100 µM | HT-29 > 100 µM | OVCAR-5 > 100 µM | HOP-62 > 100 µM | M14 > 100 µM | K562 > 100 µM | SF-268 > 100 µM | NCI-H522 > 100 µM | OVCAR-8 > 100 µM | Malme-3M > 100 µM | NCI-H460 > 100 µM | CAKI-1 > 100 µM

CSc1ccc2c(cc1=O)C(NC(=O)c1ccc(C#N)cc1)CCc1cc(O)c(O)c(O)c1-2 (centres undefined)
inactive: SR 11.7 µM | OVCAR-4 12.1 µM | HCC 2998 21.8 µM | COLO 205 19.6 µM | CCRF-CEM 9.66 µM | HT-29 29 µM | OVCAR-5 > 100 µM | HOP-62 > 100 µM | M14 30 µM | K562 7.26 µM | SF-268 43.4 µM | NCI-H522 15.7 µM | OVCAR-8 30.5 µM | Malme-3M > 100 µM | NCI-H460 27.6 µM

Nc1c(C(=O)NC23CC4CC(CC(C4)C2)C3)[n+]([O-])c2ccccc2[n+]1[O-]
inactive: OVCAR-4 > 100 µM | HCC 2998 > 100 µM | COLO 205 > 100 µM | CCRF-CEM > 100 µM | HT-29 > 100 µM | OVCAR-5 > 100 µM | HOP-62 > 100 µM | M14 > 100 µM | K562 > 100 µM | SF-268 > 100 µM | NCI-H522 > 100 µM | OVCAR-8 > 100 µM | Malme-3M > 100 µM | NCI-H460 > 100 µM | CAKI-1 > 100 µM

Cc1ccc(Oc2ccc([N+](=O)[O-])cc2[N+](=O)[O-])c(C)c1
inactive: OVCAR-4 32.2 µM | HCC 2998 > 100 µM | CCRF-CEM 30.1 µM | HT-29 25.6 µM | OVCAR-5 82.8 µM | HOP-62 49.2 µM | M14 48.6 µM | K562 30.5 µM | OVCAR-8 59.2 µM | RXF 393 20.5 µM | Malme-3M 75 µM | NCI-H460 37.3 µM | CAKI-1 29.8 µM

Cc1ccccc1-n1c(C)nc(-c2ccccc2)cc1=O
inactive: OVCAR-4 > 100 µM | HCC 2998 > 100 µM | COLO 205 > 100 µM | CCRF-CEM > 100 µM | HT-29 > 100 µM | OVCAR-5 > 100 µM | HOP-62 > 100 µM | M14 > 100 µM | K562 > 100 µM | SF-268 > 100 µM | NCI-H522 > 100 µM | OVCAR-8 > 100 µM | RXF 393 > 100 µM | Malme-3M > 100 µM | NCI-H460 > 100 µM | CAKI-1 > 100 µM

CSc1nc(NC2OCC(OC(C)=O)C(OC(C)=O)C2OC(C)=O)c(/N=C(\C)C(C)=O)c(=O)n1C (centres undefined)
inactive: OVCAR-4 > 100 µM | HCC 2998 > 100 µM | COLO 205 > 100 µM | CCRF-CEM > 100 µM | HT-29 > 100 µM | OVCAR-5 > 100 µM | HOP-62 > 100 µM | M14 > 100 µM | K562 > 100 µM | OVCAR-8 > 100 µM | RXF 393 > 100 µM | Malme-3M > 100 µM | NCI-H460 > 100 µM | CAKI-1 > 100 µM

CCOC(=O)Cc1nc2ccc3c(c2nc1O)C(=O)c1ccccc1C3=O
inactive: OVCAR-4 46.5 µM | HCC 2998 46.7 µM | COLO 205 > 100 µM | CCRF-CEM 1.95 µM | HT-29 > 100 µM | OVCAR-5 > 100 µM | HOP-62 28.2 µM | M14 77.3 µM | K562 32.4 µM | SF-268 38.5 µM | NCI-H522 16.8 µM | OVCAR-8 31.6 µM | RXF 393 8.09 µM | Malme-3M 60.7 µM | NCI-H460 35.4 µM | CAKI-1 14.6 µM

CN(C)CC1CCCCCCCCCCCCC(CN(C)C)C1=O (centres undefined)
inactive: SR 1.46 µM | OVCAR-4 15.7 µM | HCC 2998 10.2 µM | COLO 205 14 µM | HT-29 5.66 µM | OVCAR-5 16.7 µM | HOP-62 16.4 µM | M14 13.2 µM | SF-268 12.7 µM | OVCAR-8 10.3 µM | RXF 393 11.2 µM | Malme-3M 15.7 µM | NCI-H460 13.7 µM | CAKI-1 13.3 µM

CN1N=C(Nc2ccccc2)Sc2c1cnn(-c1ccccc1)c2=O
inactive: OVCAR-4 94.4 µM | HCC 2998 > 100 µM | COLO 205 > 100 µM | CCRF-CEM > 100 µM | HT-29 > 100 µM | HOP-62 > 100 µM | M14 > 100 µM | K562 30.6 µM | OVCAR-8 > 100 µM | RXF 393 > 100 µM | Malme-3M > 100 µM | NCI-H460 > 100 µM

O=C1OC(c2ccccc2)=N/C1=C\c1cc(Cl)ccc1Cl
inactive: OVCAR-4 > 100 µM | HCC 2998 > 100 µM | COLO 205 > 100 µM | CCRF-CEM 23.9 µM | HT-29 > 100 µM | OVCAR-5 > 100 µM | HOP-62 > 100 µM | M14 32.6 µM | K562 18.1 µM | SF-268 66.2 µM | NCI-H522 > 100 µM | OVCAR-8 > 10 µM | RXF 393 > 100 µM | Malme-3M > 100 µM | NCI-H460 > 100 µM

Cc1cnc[nH]c1=O
inactive: OVCAR-4 > 100 µM | HCC 2998 > 100 µM | COLO 205 > 100 µM | CCRF-CEM > 100 µM | HT-29 > 100 µM | OVCAR-5 > 100 µM | HOP-62 > 100 µM | M14 > 100 µM | K562 > 100 µM | SF-268 > 100 µM | NCI-H522 > 100 µM | OVCAR-8 > 100 µM | Malme-3M > 100 µM | NCI-H460 > 100 µM | CAKI-1 > 100 µM

C=CCn1cc(C(=O)NC(=O)NCCCCCOC(=O)CCCCCCCCCCC(=O)OCCCCCNC(=O)NC(=O)c2cn(CC=C)c(=O)n(C)c2=O)c(=O)n(C)c1=O
inactive: HCC 2998 > 100 µM | COLO 205 > 100 µM | CCRF-CEM > 100 µM | HT-29 > 100 µM | OVCAR-5 > 100 µM | HOP-62 > 100 µM | M14 > 100 µM | K562 > 100 µM | SF-268 > 100 µM | NCI-H522 > 100 µM | OVCAR-8 > 100 µM | RXF 393 > 100 µM | Malme-3M > 100 µM | NCI-H460 > 100 µM | CAKI-1 > 100 µM

COc1cccc(-c2cc(=O)c3cc(C)c(C)c(C(=O)O)c3o2)c1
inactive: OVCAR-4 > 100 µM | HCC 2998 > 100 µM | COLO 205 > 100 µM | CCRF-CEM > 100 µM | HT-29 > 100 µM | OVCAR-5 > 100 µM | HOP-62 > 100 µM | M14 > 100 µM | K562 > 100 µM | SF-268 > 100 µM | NCI-H522 > 100 µM | OVCAR-8 > 100 µM | Malme-3M > 100 µM | NCI-H460 > 100 µM
